Laboratory results: US11266674B2, “Pharmaceutical composition for tumor treatment or prevention, method, and use thereof” (SICHUAN KELUN-BIOTECH BIOPHARMACEUTICAL CO., LTD., priority 2017, dated 2022)
“And” between values parts separate entries of the source, which are not always exact repeats. Identical values can stand only once.

Tests used:
[1] = system: mouse colon cancer MC38 cells expressing humanized PD-L1 (hPD-L1-MC38); assay: In vivo efficacy on subcutaneous xenograft of mouse colon cancer hPD-L1-MC38 cells in C57BL/6J mice; settings: Day 28; compound 1.5 mg/kg p.o. every day, Tecentriq 10 mg/kg i.p. once every 2 days, combination 1.5 + 10 mg/kg
Method: This example aimed to evaluate the in vivo efficacy of the pharmaceutical combination of the present invention in a C57BL/6J mouse model with subcutaneous xenograft of mouse colon cancer hPD-L1-MC38 cells expressing humanized PD-L1.
hPD-L1-MC38 cells were cultured as a monolayer in vitro, and the culture conditions were 1640 culture medium supplemented with 10% Fetal Bovine Serum, and incubation in an incubator at 37° C. and 5% CO2. The cells were subcultured by treatment with routine trypsin-EDTA digestion three times a week.
0.1 mL of a PBS resuspension containing 2×10^5 hPD-L1-MC38 cells was inoculated subcutaneously at the right scapula of each mouse, and the grouping of animals was performed on the day of inoculation.
(§1) 5 g of sodium carboxymethyl cellulose was weighed and placed in a 1000 mL wide-mouth bottle, 800 mL of ultrapure water was added, and the mixture was stirred to effect a solution, the volume of which was then filled up to 1000 mL, thereby obtaining the vehicle.
(§2) An appropriate amount of the 4′-thionucleoside phosphamide derivative compound in the present invention was weighed, a certain amount of the vehicle was added, and a uniform suspension was obtained after mixing.
An appropriate amount of the hPD-L1 inhibitor (Atezolizumab, trade name: Tecentriq® purchased from Roche Corporation, WHO Pharmaceutical Information (International Nonproprietary Name for Pharmaceutical Substances), Recommended INN: List 74, Vol. 29, No. 3, 2015 (see page 387)) was taken, physiological saline was added to obtain a solution of Tecentriq® at a concentration of 1 mg/mL.
C57BL/6J mice were inoculated with hPD-L1-MC38 cells, randomized into groups (8 mice per group), and treated by administration on the same day of the inoculation. The dosing volume was 10 mL/kg (in the group treated with the drug combination, the two drugs were administered individually at an interval of 4 hours). The 4′-thionucleoside phosphamide derivative compound in the present invention was administered by oral gavage (p.o.) every day for 4 weeks, and Tecentriq was administered intraperitoneally (i.p.) once every 2 days for 4 weeks. The tumor weight was measured.
The anti-tumor effect was evaluated by the measured tumor weight, and the method of measuring tumor weight and its evaluation were the same as those described in Example 1.

[2] = system: human hepatoma Hep3B-luc cells; assay: In vivo efficacy on orthotopic liver xenograft of human hepatoma Hep3B-luc cells in BALB/c nude mice; settings: compound 1.5 mg/kg, Sorafenib 30 mg/kg, combination 1.5 + 30 mg/kg; for The average bioluminescence value of tumor (photons/sec) Day 0: Day 0, at grouping (baseline); for T/Cfluorescence (%) / T/Ctumor weight (%) / TGIfluorescence (%) / TGItumor weight (%) / The average bioluminescence value of tumor (photons/sec) Day 28 / Tumor weight: Day 28, p.o. every day
Method: This example aimed to evaluate the in vivo efficacy of the pharmaceutical combination of the present invention in a BALB/c nude mouse model with human hepatoma Hep3B-luc cell orthotopic xenografts.
Human hepatoma Hep3B-luc cells were cultured as a monolayer in vitro, and the culture conditions were EMEM culture medium supplemented with 10% Fetal Bovine Serum, and incubation in an incubator at 37° C. and 5% CO2. The cells were subcultured by treatment with routine trypsin-EDTA digestion twice a week. When cell saturation was 80-90%, the number met the requirement, and the cells were harvested and counted.
20 μl of the cell suspension (PBS:Matrigel=1:1) containing about 3×10^6 Hep3B-Luc cells was injected into the left lobe of the liver of BALB/c-nude mice.
as §1, §2
(§3) An appropriate amount of Sorafenib was weighed, and dissolved by adding polyoxyethylene castor oil. Ethanol was added and evenly mixed, followed by addition of physiological saline, thereby obtaining a uniform suspension.
After inoculation, the tumor growth was assessed by real-time IVIS fluorescence imaging, and mice bearing a tumor with a bioluminescence value of about 1E+8 photons/sec were selected, and randomized into groups (10 mice per group). The dosing volume was 10 mL/kg (in the group treated with the drug combination, the two drugs were administered individually at an interval of 4 hours), and the administration was performed by oral gavage (p.o.) every day for 4 weeks. The tumor volume and tumor weight were measured and recorded by IVIS bioluminescence.
The anti-tumor effect was evaluated by measuring the bioluminescence value, which reflects the tumor volume. The relative bioluminescence value (RB) was calculated by the measured average bioluminescence value, RB=Bt/B0, wherein B0 is the average bioluminescence value measured at the time of grouping for administration (i.e., Day 0); Bt is the average bioluminescence value measured on Day t. The anti-tumor efficacy was evaluated by tumor growth inhibition TGIfluorescence (%) and T/Cfluorescence (%). The equations for calculation are as follows: T/Cfluorescence(%)=TRB/CRB×100%; TGIfluorescence(%)=100%−T/Cfluorescence(%)
wherein TRB and CRB are respectively the relative fluorescence values (RB) of the treatment group and vehicle group.
The anti-tumor efficacy was evaluated by TGIfluorescence% or T/Cfluorescence%.
The anti-tumor effect was evaluated by tumor weight according to a method same as that described in Example 1.
(3) The Criteria for Determining Synergism were the Same as in Example 1.

[3] = system: human hepatoma Hep3B cells; assay: In vivo efficacy on subcutaneous xenograft of human hepatoma Hep3B cells in NU/NU nude mice; settings: compound 1.5 mg/kg, Sorafenib 30 mg/kg, combination 1.5 + 30 mg/kg; for Tumor volume (mm^3) Day 0: Day 0, at grouping (baseline)
Method: (§4) This example aimed to evaluate the in vivo efficacy and tolerability of the pharmaceutical combination of the present invention in a NU/NU nude mouse model with human hepatoma Hep3B cell subcutaneous xenografts.
Human hepatoma Hep3B cells were cultured as a monolayer in vitro, and the culture conditions were EMEM culture medium supplemented with 10% Fetal Bovine Serum, and incubation in an incubator at 37° C. and 5% CO2. The cells were subcultured by treatment with routine trypsin-EDTA digestion twice a week.
0.2 mL of a cell suspension (PBS:Matrigel=1:1) containing 1×10^6 Hep3B was inoculated subcutaneously into the right flank of each mouse. After the inoculated tumor reached an average size in the range of 100-200 mm^3, the grouping of animals was performed.
as §1, §2, §3
(§5) Mice bearing a tumor having a volume of 100-200 mm^3 were selected, and randomized into groups (8 mice per group). The dosing volume was 10 mL/kg (in the group treated with the drug combination, the two drugs were administered individually at an interval of 4 hours), and the administration was performed by oral gavage (p.o.) every day for 20 days. The tumor volume, body weight of the animals and tumor weight were measured.
(1) The Anti-Tumor Effect was Evaluated by Measuring the Tumor Volume.
The equation for calculating the tumor volume is as follows: V=0.5a×b^2, wherein a and b respectively represent the major and minor diameters of a tumor.
RTV=Vt/V0; wherein V0 is the average tumor volume measured at the time of grouping for administration (i.e., Day 0); and Vt is the average tumor volume measured on Day t.
The anti-tumor efficacy was evaluated by tumor growth inhibition TGIvolume (%) and T/Cvolume (%). T/Cvolume (%)=TRTV/CRTV×100%; TGIvolume (%)=100%−T/Cvolume (%); wherein TRTV and CRTV are respectively RTVs of the treatment group and vehicle group at the end of the test.
TGItumor weight (%) and T/Ctumor weight (%) were calculated based on tumor weight, and were used to evaluate the tumor inhibitory effect. The equation for calculation is as follows: T/Ctumor weight(%)=WTt/WCt×100%; TGItumor weight(%)=100%−T/Ctumor weight(%);
WTt is the average tumor weight in the treatment group at the end of the test; and WCt is the average tumor weight in the vehicle group at the end of the test.
The synergism was evaluated by Jin's equation q=EA+B/(EA+EB−EA×EB), wherein EA+B represents the efficacy achieved by the combination, and EA or EB represents the efficacy achieved by individual administration. In the present invention, the efficacy indicated in the equation refers to TGI %. When q<0.85, the combination administration is considered to achieve an antagonistic effect; when q=0.85-1.15, the combination administration is considered to achieve an additive effect; and when q>1.15, the combination administration is considered to achieve a synergistic effect.

[4] = Tolerability by body weight change of Hep3B cell tumor-bearing NU/NU nude mice; format: in vivo, mouse
Method: as §4, §5
(2) The Animal's Tolerance to a Drug was Evaluated by Animal Body Weight Change.
The method for calculating the animal body weight change (%) is as follows: (Wt−W0)/W0×100%; W0: the animal's body weight at the time of grouping for administration (i.e., Day 0); Wt: the animal's body weight on day t of the test.
Body weight change in the animals tested serve as a reference indicator for determining drug tolerance.

Q: For `CC(C)OC(=O)C(C)NP(=O)(OCC1SC(n2ccc(N)nc2=O)C(F)C1O)Oc1ccccc1` (centres unmarked), which “T/Ctumor weight (%)” value [1] is on record?
A: 95.16%

Q: And the “TGItumor weight (%)” value [1]?
A: 4.84%

Q: And the “Tumor weight” value [1]?
A: 3.54 g and 3.54 ± 0.41 g

Q: And the “The average bioluminescence value of tumor (photons/sec) Day 0” value [2]?
A: 1.09E+8 photons/sec

Q: And the “T/Cfluorescence (%)” value [2]?
A: 103.43%

Q: And the “T/Ctumor weight (%)” value [2]?
A: 77.93%

Q: What about the “TGIfluorescence (%)” value [2] of the same compound?
A: −3.43%

Q: And the “TGItumor weight (%)” value [2]?
A: 22.07%

Q: What about the “The average bioluminescence value of tumor (photons/sec) Day 28” value [2] of the same compound?
A: 2.41E+10 photons/sec

Q: And the “Tumor weight” value [2]?
A: 3.46 g and 3.46 ± 1.17 g

Q: And the “Tumor volume (mm^3) Day 0” value [3]?
A: 137.67 ± 7.75 mm^3

Q: What about the “T/Ctumor weight (%)” value ([3]; Day 20, p.o. every day) of the same compound?
A: 61.02%

Q: What about the “T/Cvolume (%)” value ([3]; Day 20, p.o. every day) of the same compound?
A: 65.25%

Q: What about the “TGItumor weight (%)” value ([3]; Day 20, p.o. every day) of the same compound?
A: 38.98%

Q: And the “TGIvolume (%)” value ([3]; Day 20, p.o. every day)?
A: 34.75%

Q: What about the “Tumor weight” value ([3]; Day 20, p.o. every day) of the same compound?
A: 1.19 g and 1.19 ± 0.25 g

Q: For Atezolizumab [Tecentriq], which “T/Ctumor weight (%)” value [1] is on record?
A: 73.12%

Q: What about the “TGItumor weight (%)” value [1] of the same compound?
A: 26.88%

Q: And the “Tumor weight” value [1]?
A: 2.72 g and 2.72 ± 0.44 g

Q: Which “The average bioluminescence value of tumor (photons/sec) Day 0” value [2] does the source give for `CNC(=O)c1cc(Oc2ccc(NC(=O)Nc3ccc(Cl)c(C(F)(F)F)c3)cc2)ccn1` [Sorafenib] here?
A: 1.09E+8 photons/sec

Q: And the “T/Cfluorescence (%)” value [2]?
A: 64.81%

Q: And the “T/Ctumor weight (%)” value [2]?
A: 31.53%

Q: And the “TGIfluorescence (%)” value [2]?
A: 35.19%

Q: What about the “TGItumor weight (%)” value [2] of the same compound?
A: 68.47%

Q: What about the “The average bioluminescence value of tumor (photons/sec) Day 28” value [2] of the same compound?
A: 1.51E+10 photons/sec

Q: What about the “Tumor weight” value [2] of the same compound?
A: 1.40 g and 1.40 ± 0.82 g

Q: And the “Tumor volume (mm^3) Day 0” value [3]?
A: 137.77 ± 7.92 mm^3

Q: What about the “T/Ctumor weight (%)” value ([3]; Day 20, p.o. every day) of the same compound?
A: 38.97%

Q: And the “T/Cvolume (%)” value ([3]; Day 20, p.o. every day)?
A: 42.86%

Q: And the “TGItumor weight (%)” value ([3]; Day 20, p.o. every day)?
A: 61.03%

Q: What about the “TGIvolume (%)” value ([3]; Day 20, p.o. every day) of the same compound?
A: 57.14%

Q: What about the “Tumor volume (mm^3) Day 20” value ([3]; Day 20, p.o. every day) of the same compound?
A: 912.68 mm^3 and 912.68 ± 173.12 mm^3

Q: And the “Tumor weight” value ([3]; Day 20, p.o. every day)?
A: 0.76 g and 0.76 ± 0.17 g

Q: What about the weight loss ([4]; Day 20, Sorafenib 30 mg/kg p.o. every day, printed as loss) of the same compound?
A: 8.31%

Q: And the “Body weight change (%)” value ([4]; Day 20, p.o. every day, compound 1.5 mg/kg, Sorafenib 30 mg/kg, combination 1.5 + 30 mg/kg, error range ±0.2%)?
A: −8.31%
